Experimental data reported in the SangsterLogP compilation.

Experiment: method code SF-HPLC, from DOI: 10.1080/10826079308019563
Conditions: pH 11.0

Structure (SMILES)	logD
NC1=NCC(CN2CCN(c3ccccn3)CC2)O1 (stereo not given)	0.48
NC1=NCC(CN2CCN(c3ccccc3Cl)CC2)O1 (stereo not given)	1.87
NC1=NCC(CN2CCN(c3ccccc3)CC2)O1 (stereo not given)	0.85
NC1=NCC(CN2CCN(c3ccc(Cl)cc3)CC2)O1 (stereo not given)	1.71
NC1=NCC(CN2CCN(c3cccc(C(F)(F)F)c3)CC2)O1 (stereo not given)	2.21
COc1ccccc1N1CCN(CC2CN=C(N)O2)CC1 (stereo not given)	0.76
NC1=NCC(CN2CCN(c3ccc(F)cc3)CC2)O1 (stereo not given)	1
CCOc1ccccc1N1CCN(CC2CN=C(N)O2)CC1 (stereo not given)	1.21
NC1=NCC(CN2CCN(c3ccc(Cl)c(Cl)c3)CC2)O1 (stereo not given)	2.4

Second part, the molecule after the results:

logD	Structure (SMILES)
2.19	Cc1cccc(N2CCN(CC3CN=C(N)O3)CC2)c1C (stereo not given)
0.87	COc1cccc(N2CCN(CC3CN=C(N)O3)CC2)c1 (stereo not given)
0.68	COc1ccc(N2CCN(CC3CN=C(N)O3)CC2)cc1 (stereo not given)
0.21	NC1=NCC(CN2CCN(c3ncccn3)CC2)O1 (stereo not given)
1.23	NC1=NCC(CN2CCN(c3ccc(C(F)(F)F)cc3)CC2)O1 (stereo not given)
1.83	NC1=NCC(CN2CCN(c3cccc(Cl)c3)CC2)O1 (stereo not given)
